{"source": "paper PMC9096165", "about": "(Frontiers in Pharmacology, 2022)", "key": {"[1]": {"target": "Nav1.7 (Homo sapiens, UniProt Q15858)", "experiment": "Ion channel assay, agonist and antagonist mode", "format": "biochemical", "conditions": "up to 100 μM (maximum tested concentration)", "procedure": "(§1) In addition, DF2755A was tested on TRPM8, TRPV1, TRPV4, TRPA1, and Nav1.7 ion channels in agonist and antagonist mode at eight concentrations in quadruplicate (100 μM was the highest tested concentration)."}, "[2]": {"target": "TRPA1 (Homo sapiens, UniProt O75762)", "sequence (O75762 whole entry, species assumed)": "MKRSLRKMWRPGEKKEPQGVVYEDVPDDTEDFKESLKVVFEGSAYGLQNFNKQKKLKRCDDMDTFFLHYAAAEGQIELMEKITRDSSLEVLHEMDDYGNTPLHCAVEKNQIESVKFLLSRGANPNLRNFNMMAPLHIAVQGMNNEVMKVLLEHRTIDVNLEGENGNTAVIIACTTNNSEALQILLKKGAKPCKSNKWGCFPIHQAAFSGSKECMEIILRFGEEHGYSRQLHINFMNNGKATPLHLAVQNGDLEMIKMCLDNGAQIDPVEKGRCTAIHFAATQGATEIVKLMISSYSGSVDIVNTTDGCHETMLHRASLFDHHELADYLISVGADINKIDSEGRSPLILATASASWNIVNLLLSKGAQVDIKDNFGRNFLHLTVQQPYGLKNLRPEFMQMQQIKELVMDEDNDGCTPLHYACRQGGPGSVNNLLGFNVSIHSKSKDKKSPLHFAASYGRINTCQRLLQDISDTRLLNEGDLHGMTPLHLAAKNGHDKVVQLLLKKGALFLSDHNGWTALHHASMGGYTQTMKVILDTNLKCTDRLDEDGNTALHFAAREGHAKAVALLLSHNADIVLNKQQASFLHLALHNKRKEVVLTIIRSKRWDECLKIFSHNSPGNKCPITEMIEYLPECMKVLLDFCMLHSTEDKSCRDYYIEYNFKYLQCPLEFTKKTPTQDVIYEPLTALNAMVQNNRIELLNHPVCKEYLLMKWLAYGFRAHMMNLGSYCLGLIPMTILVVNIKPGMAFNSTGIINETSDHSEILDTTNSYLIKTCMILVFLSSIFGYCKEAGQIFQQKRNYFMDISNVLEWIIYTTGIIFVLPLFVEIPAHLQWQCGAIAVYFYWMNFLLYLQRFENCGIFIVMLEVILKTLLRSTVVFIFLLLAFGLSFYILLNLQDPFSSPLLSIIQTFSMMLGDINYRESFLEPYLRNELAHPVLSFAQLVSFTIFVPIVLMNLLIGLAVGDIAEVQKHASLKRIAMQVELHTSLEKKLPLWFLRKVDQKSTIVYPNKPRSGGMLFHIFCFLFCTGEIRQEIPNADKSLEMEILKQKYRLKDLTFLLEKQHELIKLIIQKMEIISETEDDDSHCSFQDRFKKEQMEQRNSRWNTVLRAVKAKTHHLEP", "experiment": "Ion channel assay, agonist and antagonist mode", "format": "biochemical", "conditions": "up to 100 μM (maximum tested concentration)", "procedure": "as §1"}, "[3]": {"target": "TRPM8 (Homo sapiens, UniProt Q7Z2W7)", "sequence (Q7Z2W7 whole entry, species assumed)": "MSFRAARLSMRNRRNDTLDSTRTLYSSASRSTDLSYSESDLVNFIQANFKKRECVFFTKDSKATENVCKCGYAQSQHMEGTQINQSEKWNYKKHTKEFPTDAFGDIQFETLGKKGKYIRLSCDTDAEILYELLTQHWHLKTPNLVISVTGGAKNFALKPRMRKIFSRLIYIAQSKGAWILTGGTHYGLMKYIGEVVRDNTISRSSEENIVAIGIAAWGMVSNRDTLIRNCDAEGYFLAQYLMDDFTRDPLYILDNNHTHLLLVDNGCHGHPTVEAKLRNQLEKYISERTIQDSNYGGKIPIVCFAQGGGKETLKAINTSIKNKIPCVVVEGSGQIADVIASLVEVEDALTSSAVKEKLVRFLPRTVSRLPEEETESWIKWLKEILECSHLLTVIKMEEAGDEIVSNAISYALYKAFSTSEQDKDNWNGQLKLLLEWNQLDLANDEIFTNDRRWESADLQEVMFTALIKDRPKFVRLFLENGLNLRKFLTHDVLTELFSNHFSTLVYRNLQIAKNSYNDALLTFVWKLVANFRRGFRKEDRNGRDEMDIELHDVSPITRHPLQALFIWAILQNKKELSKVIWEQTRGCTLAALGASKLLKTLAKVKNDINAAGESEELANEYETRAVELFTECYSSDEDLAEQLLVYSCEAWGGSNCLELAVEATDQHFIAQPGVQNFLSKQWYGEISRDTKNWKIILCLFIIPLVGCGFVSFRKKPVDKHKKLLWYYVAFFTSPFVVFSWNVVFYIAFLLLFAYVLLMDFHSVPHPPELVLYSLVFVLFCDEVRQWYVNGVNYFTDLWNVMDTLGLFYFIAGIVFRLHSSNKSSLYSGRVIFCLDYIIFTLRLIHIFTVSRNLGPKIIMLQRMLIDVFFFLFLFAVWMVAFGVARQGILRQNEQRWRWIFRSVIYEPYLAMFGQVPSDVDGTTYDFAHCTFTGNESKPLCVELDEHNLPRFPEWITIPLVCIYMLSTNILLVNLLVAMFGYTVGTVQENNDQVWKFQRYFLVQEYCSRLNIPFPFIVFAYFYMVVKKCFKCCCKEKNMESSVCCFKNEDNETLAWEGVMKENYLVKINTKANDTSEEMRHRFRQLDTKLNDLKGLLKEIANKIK", "experiment": "Ion channel assay, agonist and antagonist mode", "format": "biochemical", "conditions": "up to 100 μM (maximum tested concentration)", "procedure": "as §1"}, "[4]": {"target": "TRPV1 (Homo sapiens, UniProt Q8NER1)", "sequence (Q8NER1 whole entry, species assumed)": "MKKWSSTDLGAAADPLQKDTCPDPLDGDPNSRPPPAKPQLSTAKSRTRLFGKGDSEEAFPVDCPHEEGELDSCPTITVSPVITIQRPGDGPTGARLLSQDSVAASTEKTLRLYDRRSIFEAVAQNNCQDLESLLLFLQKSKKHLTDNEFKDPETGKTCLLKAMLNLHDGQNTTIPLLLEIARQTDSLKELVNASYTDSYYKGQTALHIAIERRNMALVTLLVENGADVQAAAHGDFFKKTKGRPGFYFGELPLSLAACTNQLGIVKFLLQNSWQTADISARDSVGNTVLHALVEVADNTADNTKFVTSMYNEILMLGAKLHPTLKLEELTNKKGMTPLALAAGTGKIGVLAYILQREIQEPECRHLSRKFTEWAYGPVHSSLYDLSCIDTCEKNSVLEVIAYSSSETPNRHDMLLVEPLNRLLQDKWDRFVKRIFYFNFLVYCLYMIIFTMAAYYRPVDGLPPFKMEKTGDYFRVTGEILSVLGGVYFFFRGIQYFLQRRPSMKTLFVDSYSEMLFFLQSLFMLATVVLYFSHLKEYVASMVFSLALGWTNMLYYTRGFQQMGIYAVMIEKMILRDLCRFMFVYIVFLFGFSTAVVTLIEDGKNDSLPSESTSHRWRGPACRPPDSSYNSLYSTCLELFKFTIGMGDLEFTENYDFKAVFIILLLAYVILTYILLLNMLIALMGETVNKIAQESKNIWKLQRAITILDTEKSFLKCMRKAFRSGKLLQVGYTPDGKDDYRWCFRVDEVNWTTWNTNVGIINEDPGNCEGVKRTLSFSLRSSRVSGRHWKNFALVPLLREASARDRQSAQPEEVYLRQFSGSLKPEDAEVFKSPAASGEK", "experiment": "Ion channel assay, agonist and antagonist mode", "format": "biochemical", "conditions": "up to 100 μM (maximum tested concentration)", "procedure": "as §1"}, "[5]": {"target": "TRPV4 (Homo sapiens, UniProt Q9HBA0)", "sequence (Q9HBA0 whole entry, species assumed)": "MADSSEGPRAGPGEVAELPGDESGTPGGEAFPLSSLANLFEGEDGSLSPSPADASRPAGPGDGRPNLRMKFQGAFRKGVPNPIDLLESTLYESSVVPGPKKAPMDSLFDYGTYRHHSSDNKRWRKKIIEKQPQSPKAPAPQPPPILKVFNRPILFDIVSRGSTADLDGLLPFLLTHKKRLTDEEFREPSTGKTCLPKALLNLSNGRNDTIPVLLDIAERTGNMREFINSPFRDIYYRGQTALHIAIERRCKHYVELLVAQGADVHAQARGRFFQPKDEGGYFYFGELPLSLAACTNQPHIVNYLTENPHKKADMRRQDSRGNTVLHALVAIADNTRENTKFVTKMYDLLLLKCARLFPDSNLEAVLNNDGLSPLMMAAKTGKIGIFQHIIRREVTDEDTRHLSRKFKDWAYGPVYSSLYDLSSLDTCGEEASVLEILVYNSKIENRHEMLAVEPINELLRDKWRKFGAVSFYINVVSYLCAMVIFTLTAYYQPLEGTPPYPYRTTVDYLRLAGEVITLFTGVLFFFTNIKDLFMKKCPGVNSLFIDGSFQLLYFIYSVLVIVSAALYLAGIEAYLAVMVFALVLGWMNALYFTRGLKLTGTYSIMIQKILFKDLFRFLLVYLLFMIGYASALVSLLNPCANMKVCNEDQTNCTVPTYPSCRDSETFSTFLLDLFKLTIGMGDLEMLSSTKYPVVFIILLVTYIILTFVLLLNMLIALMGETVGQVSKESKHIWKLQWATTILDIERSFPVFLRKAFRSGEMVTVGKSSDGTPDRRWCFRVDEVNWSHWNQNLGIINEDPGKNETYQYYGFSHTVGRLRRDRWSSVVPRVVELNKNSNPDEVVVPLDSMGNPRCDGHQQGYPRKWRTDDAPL", "experiment": "Ion channel assay, agonist and antagonist mode", "format": "biochemical", "conditions": "up to 100 μM (maximum tested concentration)", "procedure": "as §1"}, "[6]": {"test_system": "urinary bladder", "format": "in vivo", "conditions": "preventive: 20 mg kg^−1 + 7 mg kg^−1 twice daily for 7 days; CYP rats", "procedure": "CYP was administered to the animals by the intraperitoneal (i.p.) route (5 ml kg^−1) at the dosage of 75 mg kg^−1 for three times every third day to elicit chronic bladder irritation, as previously described ([Vizzard et al., 1996]).\n(§2) Animals pre-treated with the vehicle or a single high oral dose of DF2755A (20 mg kg^−1; 12 h before the first CYP administration) followed by repeated lower doses administration (7 mg kg^−1 twice daily for 7 days) during IC development were deeply anesthetized with isoflurane (4%) and then killed.\nAfter killing, rat abdomen was opened through a midline incision, and bladder and proximal urethra were exposed. A catheter was inserted into the bladder through the urethra and a loose ligature was placed around the neck of the urinary bladder. Bladder was inflated with saline via the catheter to slightly distend the bladder and ligature was tightened to maintain proper distension. Bladder was then excised cutting above the insertion point of ureters, and therefore the bladder neck was not included into the bladder sample. Bladders were opened using scissors and, after gross macroscopic evaluation and weighing, each bladder was cut into two equal pieces (named B1 and B2) and weighted again individually. One piece (B1) was placed in Eppendorf, then snap-frozen in liquid nitrogen, and stored at −80°C until quantification using ELISA assay. The second piece (B2) was placed in 10% formalin and stored at room temperature. Then the same samples were placed in 70% ethanol, then processed in paraffin blocks, and then trimmed according to the longitudinal plane to ensure the correct analysis of all the bladder sample. Sections were stained with hematoxylin and eosin (HE), and slides were then digitalized using a Pathscan® Touch scanner in the bright field mode with a ×20 objective. For the microscopic observations of bladder inflammation, the following parameters were analyzed: bladder edema in scores (n = 10/group), bladder hemorrhage in scores (n = 10/group), urothelial loss in scores (n = 10/group), and total inflammatory score, which was calculated by adding all the individual lesion scores (n = 10/group)."}, "[7]": {"test_system": "CXCL5", "experiment": "CXCL5 ELISA in bladder tissue", "format": "in vivo, rat", "conditions": "preventive: 20 mg kg^−1 + 7 mg kg^−1 twice daily for 7 days, CYP rats", "procedure": "as §2\nAfter killing, rat abdomen was opened through a midline incision, and bladder and proximal urethra were exposed. A catheter was inserted into the bladder through the urethra and a loose ligature was placed around the neck of the urinary bladder. Bladder was inflated with saline via the catheter to slightly distend the bladder and ligature was tightened to maintain proper distension. Bladder was then excised cutting above the insertion point of ureters, and therefore the bladder neck was not included into the bladder sample. […] One piece (B1) was placed in Eppendorf, then snap-frozen in liquid nitrogen, and stored at −80°C until quantification using ELISA assay. […] For the microscopic observations of bladder inflammation, the following parameters were analyzed: bladder edema in scores (n = 10/group), bladder hemorrhage in scores (n = 10/group), urothelial loss in scores (n = 10/group), and total inflammatory score, which was calculated by adding all the individual lesion scores (n = 10/group). […]"}, "[8]": {"test_system": "TRPV1", "experiment": "TRPV1 Western blotting in bladder homogenates", "format": "in vivo, rat", "conditions": "preventive: 20 mg kg^−1 + 7 mg kg^−1 twice daily for 7 days; Western blot, CYP rats", "procedure": "as §2\nAfter killing, rat abdomen was opened through a midline incision, and bladder and proximal urethra were exposed. A catheter was inserted into the bladder through the urethra and a loose ligature was placed around the neck of the urinary bladder. Bladder was inflated with saline via the catheter to slightly distend the bladder and ligature was tightened to maintain proper distension. […] One piece (B1) was placed in Eppendorf, then snap-frozen in liquid nitrogen, and stored at −80°C until quantification using ELISA assay. […] For the microscopic observations of bladder inflammation, the following parameters were analyzed: bladder edema in scores (n = 10/group), bladder hemorrhage in scores (n = 10/group), urothelial loss in scores (n = 10/group), and total inflammatory score, which was calculated by adding all the individual lesion scores (n = 10/group).\nProtease and phosphatase inhibitors were added to the bladder homogenates extracted. […] The extracted proteins were quantified using BCA assay (Thermo, United States). […]"}, "[9]": {"test_system": "TRPV1", "experiment": "TRPV1 mRNA expression in F11 cells (RT PCR)", "format": "cell-based", "conditions": "DF2755A 1 µM + CYP 100 nM", "text": "(§3) For these experiments, cells at 18th passage were used.\n(§4) Triplicate samples were run for each gene."}, "[10]": {"test_system": "CXCL1", "experiment": "CXCL1 mRNA expression in F11 cells (RT PCR)", "format": "cell-based", "conditions": "DF2755A 1 µM + CYP 100 nM", "text": "as §3, §4"}, "[11]": {"test_system": "CXCR2", "experiment": "CXCR2 mRNA expression in F11 cells (RT PCR)", "format": "cell-based", "conditions": "DF2755A 1 µM + CYP 100 nM", "text": "as §3, §4"}, "[12]": {"test_system": "CXCR2", "parameters": "method as in Lopes et al., 2016", "conditions": "ref Lopes et al., 2016; cited from earlier work"}}}
{"smiles": "C[C@H](C(=O)[O-])c1ccc(Nc2nc(C(F)(F)F)cs2)cc1.[Na+]", "note": "[DF2755A, sodium (2S)-2-(4-{[4-(trifluoromethyl)-1,3-thiazol-2-yl]amino}phenyl)propanoate]", "values": [{"measurement": "activity in agonism and antagonism mode", "setting": "[1]", "result": "no activity"}, {"measurement": "activity in agonism and antagonism mode", "setting": "[2]", "result": "no activity"}, {"measurement": "activity in agonism and antagonism mode", "setting": "[3]", "result": "no activity"}, {"measurement": "activity in agonism and antagonism mode", "setting": "[4]", "result": "no activity"}, {"measurement": "activity in agonism and antagonism mode", "setting": "[5]", "result": "no activity"}, {"measurement": "histological evaluated parameters (edema, hemorrhage, urothelial loss, total inflammatory score), DF2755A- versus vehicle-treated rats", "setting": "[6]", "result": "no significant difference"}, {"measurement": "bladder tissue expression of CXCL5 versus vehicle-treated rats", "setting": "[7]", "result": "strongly inhibited"}, {"measurement": "TRPV1 bladder expression versus vehicle-treated animals", "setting": "[8]", "result": "reduced"}, {"measurement": "TRPV1 mRNA expression in CYP-exposed cells", "setting": "[9]", "result": "restored TRPV1 mRNA expression to control values"}, {"measurement": "CXCL1 mRNA expression in CYP-exposed cells", "setting": "[10]", "result": "restored the mRNA expression of all the targets to control values"}, {"measurement": "CXCR2 mRNA expression in CYP-exposed cells", "setting": "[11]", "result": "restored the mRNA expression of all the targets to control values"}, {"measurement": "IC50", "setting": "[12]", "result": 2.1, "unit": "nM"}]}
